Assay results as given in patent publication US20230271954A1 (Gossamer Bio Services, Inc., priority 2020, published 2023).

How the values were obtained:
[1] = biological target: T1, DGKζ (Homo sapiens, UniProt Q13574); test: DGKζ biochemical assay (ADP-Glo); settings: read-out: DGK ζ IC50
T1 construct: purchased Carna 12-110

[2] = biological target: DGKα (Homo sapiens, UniProt P23743); test: DGKα biochemical assay (ADP-Glo); settings: read-out: DGK α IC50
Outline: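 ADP-Glo kinase assay using OAG/PS (1:2) lipid substrate, sonicated, in HEPES pH 7.0 buffer with MgCl2, CaCl2, DTT, BSA, Triton X-100. Enzyme preincubated with compound 30 min at RT; substrate with ATP (DGKα: 400 μM) added, 45 min RT. Luminescence read; % inhibition vs DMSO and no-enzyme controls.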

T1 sequence (Q13574 1-929 isoform Q13574-4): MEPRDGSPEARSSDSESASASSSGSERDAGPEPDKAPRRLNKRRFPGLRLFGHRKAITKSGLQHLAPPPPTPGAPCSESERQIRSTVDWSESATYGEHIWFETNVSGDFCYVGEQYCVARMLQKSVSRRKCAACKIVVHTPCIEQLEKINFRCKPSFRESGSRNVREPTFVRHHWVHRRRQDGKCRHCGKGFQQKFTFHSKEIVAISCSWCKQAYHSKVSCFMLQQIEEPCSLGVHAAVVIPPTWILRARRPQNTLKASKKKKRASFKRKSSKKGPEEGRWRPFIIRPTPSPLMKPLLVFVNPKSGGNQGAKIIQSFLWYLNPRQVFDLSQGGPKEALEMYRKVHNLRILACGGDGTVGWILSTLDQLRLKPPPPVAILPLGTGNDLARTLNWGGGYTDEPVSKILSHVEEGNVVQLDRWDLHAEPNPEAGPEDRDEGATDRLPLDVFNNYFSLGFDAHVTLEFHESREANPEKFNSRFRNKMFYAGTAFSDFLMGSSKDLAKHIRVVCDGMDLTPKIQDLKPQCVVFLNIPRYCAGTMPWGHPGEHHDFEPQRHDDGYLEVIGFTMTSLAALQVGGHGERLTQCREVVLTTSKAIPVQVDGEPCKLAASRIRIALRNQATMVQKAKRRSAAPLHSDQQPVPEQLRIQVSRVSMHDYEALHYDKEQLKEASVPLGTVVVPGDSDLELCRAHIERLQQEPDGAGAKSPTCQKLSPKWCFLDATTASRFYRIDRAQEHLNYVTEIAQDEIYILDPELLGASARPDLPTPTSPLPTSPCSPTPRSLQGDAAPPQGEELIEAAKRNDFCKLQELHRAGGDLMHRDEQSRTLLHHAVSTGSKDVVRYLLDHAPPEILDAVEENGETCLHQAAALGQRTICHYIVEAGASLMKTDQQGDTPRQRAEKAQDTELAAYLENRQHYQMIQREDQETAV
Sequence of DGKα (P23743 whole entry): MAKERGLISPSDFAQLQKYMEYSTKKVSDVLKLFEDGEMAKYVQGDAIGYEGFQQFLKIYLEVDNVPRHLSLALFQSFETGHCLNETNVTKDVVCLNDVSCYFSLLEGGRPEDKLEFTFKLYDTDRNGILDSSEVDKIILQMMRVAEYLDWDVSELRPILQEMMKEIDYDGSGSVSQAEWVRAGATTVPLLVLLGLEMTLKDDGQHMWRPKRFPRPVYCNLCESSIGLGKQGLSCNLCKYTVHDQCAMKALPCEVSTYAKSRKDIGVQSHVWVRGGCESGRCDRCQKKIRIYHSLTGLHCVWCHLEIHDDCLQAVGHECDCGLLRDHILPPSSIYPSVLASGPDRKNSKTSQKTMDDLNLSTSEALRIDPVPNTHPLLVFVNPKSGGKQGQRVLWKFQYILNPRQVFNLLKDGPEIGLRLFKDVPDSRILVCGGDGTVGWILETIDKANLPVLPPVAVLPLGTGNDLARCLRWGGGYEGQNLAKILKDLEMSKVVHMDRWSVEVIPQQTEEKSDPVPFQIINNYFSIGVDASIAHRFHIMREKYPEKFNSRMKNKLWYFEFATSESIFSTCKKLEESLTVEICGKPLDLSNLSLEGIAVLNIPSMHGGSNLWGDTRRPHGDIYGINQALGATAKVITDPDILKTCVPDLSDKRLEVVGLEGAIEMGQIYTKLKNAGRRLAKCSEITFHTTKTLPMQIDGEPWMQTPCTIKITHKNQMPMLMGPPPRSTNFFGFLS

SMILES | IC50 [1] | IC50 [2]
COc1cc(N(CC2CC2)[C@H]2CC[C@H](N(C)c3c(C#N)c(=O)n(C)c4ccc(C#N)nc34)CC2)cc(F)c1F [Example 77] | 100 to 1000 nM | ≥ 1000 nM
Cn1c(=O)c(C#N)c(N(C)[C@H]2CC[C@@H](N(CC3CC3)c3ccc4c(c3)OCO4)CC2)c2nc(Cl)ccc21 [Example 78] | 10 to 100 nM | 100 to 1000 nM
Cn1c(=O)c(C#N)c(N(C)[C@H]2CC[C@H](N(CC3CC3)c3ccc4c(c3)OCO4)CC2)c2nc(C#N)ccc21 [Example 79] | 100 to 1000 nM | ≥ 1000 nM
Cn1c(=O)cc(N(C)[C@H]2CC[C@H](N(CC3CC3)c3ccc(F)c(OC(F)F)c3)CC2)c2nc(C#N)ccc21 [Example 80] | ≥ 1000 nM | ≥ 1000 nM
Cn1c(=O)c(C#N)c(N(C)[C@H]2CC[C@@H](N(CC3CC3)c3cc(F)cc(F)c3)CC2)c2nc(C#N)ccc21 [Example 81] | 10 to 100 nM | 10 to 100 nM
Cn1c(=O)cc(N(C)[C@H]2CC[C@@H](N(CC3CC3)c3cc(F)cc(F)c3)CC2)c2nc(C#N)ccc21 [Example 82] | 100 to 1000 nM | 10 to 100 nM
COc1cc(N(C2CC2)[C@H]2CC[C@@H](N(C)c3cc(=O)n(C)c4ccc(C#N)nc34)CC2)ccc1F [Example 83] | 100 to 1000 nM | 100 to 1000 nM
Cn1c(=O)cc(N(C)[C@H]2CC[C@@H](N(CC3CC3)c3ccc(F)c(OC(F)F)c3)CC2)c2nc(C#N)ccc21 [Example 84] | 100 to 1000 nM | 10 to 100 nM
COc1cc(N(CC2CC2)[C@H]2CC[C@H](N(C)c3c(C#N)c(=O)n(C)c4ccc(Cl)nc34)CC2)cc(F)c1F [Example 85] | ≥ 1000 nM | < 10 nM
Cn1c(=O)c(C#N)c(N(C)[C@H]2CC[C@H](N(CC3CC3)c3cc(F)cc(F)c3)CC2)c2nc(C#N)ccc21 [Example 86] | 100 to 1000 nM | 100 to 1000 nM
Cc1cc(F)cc(N(CC2CC2)[C@H]2CC[C@H](N(C)c3c(C#N)c(=O)n(C)c4ccc(C#N)nc34)CC2)c1 [Example 87] | 100 to 1000 nM | 100 to 1000 nM
Cn1c(=O)cc(N(C)[C@H]2CC[C@H](N(CC3CC3)c3ccc4c(c3)OCO4)CC2)c2nc(C#N)ccc21 [Example 88] | ≥ 1000 nM | ≥ 1000 nM
Cc1cc(F)cc(N(CC2CC2)[C@H]2CC[C@H](N(C)c3cc(=O)n(C)c4ccc(C#N)nc34)CC2)c1 [Example 89] | ≥ 1000 nM | ≥ 1000 nM
Cn1c(=O)cc(N(C)[C@H]2CC[C@H](N(CC3CC3)c3cc(F)cc(F)c3)CC2)c2nc(C#N)ccc21 [Example 90] | ≥ 1000 nM | ≥ 1000 nM
Cc1cc(N(CC2CCC2)[C@H]2CC[C@@H](N(C)c3c(C#N)c(=O)n(C)c4ccc(C#N)nc34)CC2)ccc1F [Example 91] | 10 to 100 nM | < 10 nM
Cc1cc(N(CC2CCC2)[C@H]2CC[C@@H](N(C)c3cc(=O)n(C)c4ccc(C#N)nc34)CC2)ccc1F [Example 92] | 100 to 1000 nM | 10 to 100 nM
COc1cc(N(C2CC2)[C@H]2CC[C@H](N(C)c3cc(=O)n(C)c4ccc(C#N)nc34)CC2)ccc1F [Example 93] | ≥ 1000 nM | 100 to 1000 nM
Cc1cc(F)cc(N(CC2CCC2)[C@H]2CC[C@H](N(C)c3c(C#N)c(=O)n(C)c4ccc(C#N)nc34)CC2)c1 [Example 94] | 100 to 1000 nM | 100 to 1000 nM
COc1cc(N(CC2CC2)[C@H]2CC[C@H](N(C)c3cc(=O)n(C)c4ccc(C#N)nc34)CC2)cc(F)c1F [Example 95] | 100 to 1000 nM | ≥ 1000 nM
Cn1c(=O)c(C#N)c(N(C)[C@H]2CC[C@H](N(CC3CC3)c3ccc(F)c(OC(F)F)c3)CC2)c2nc(Cl)ccc21 [Example 96] | ≥ 1000 nM | < 10 nM
